In assay [1] the test system is human colorectal cancer cells (HCT116). The assay can be described thus: Growth inhibition assay (cytotoxicity) in HCT116. It counts as cell-based. Particulars: HCT-116. The method, then: (§1) For present invention, the ATPase activity of yeast HSP90 was measured using malachite green assay. Formula I compounds for primary antitumoral activity were treated in human colorectal cancer cells (HCT116) showing increased expression levels of HSP90 client protein and cotoxicity IC50 values was measured as a result.

In the next assay the target is yeast HSP90 (Saccharomyces cerevisiae, UniProt P02829). The experiment in a line: Hsp90 ATPase assay (malachite green). It counts as biochemical. The method, then: as §1

Each structure is given as a SMILES string. Some results are limits rather than exact numbers.

yeast HSP90, sequence (P02829 whole entry): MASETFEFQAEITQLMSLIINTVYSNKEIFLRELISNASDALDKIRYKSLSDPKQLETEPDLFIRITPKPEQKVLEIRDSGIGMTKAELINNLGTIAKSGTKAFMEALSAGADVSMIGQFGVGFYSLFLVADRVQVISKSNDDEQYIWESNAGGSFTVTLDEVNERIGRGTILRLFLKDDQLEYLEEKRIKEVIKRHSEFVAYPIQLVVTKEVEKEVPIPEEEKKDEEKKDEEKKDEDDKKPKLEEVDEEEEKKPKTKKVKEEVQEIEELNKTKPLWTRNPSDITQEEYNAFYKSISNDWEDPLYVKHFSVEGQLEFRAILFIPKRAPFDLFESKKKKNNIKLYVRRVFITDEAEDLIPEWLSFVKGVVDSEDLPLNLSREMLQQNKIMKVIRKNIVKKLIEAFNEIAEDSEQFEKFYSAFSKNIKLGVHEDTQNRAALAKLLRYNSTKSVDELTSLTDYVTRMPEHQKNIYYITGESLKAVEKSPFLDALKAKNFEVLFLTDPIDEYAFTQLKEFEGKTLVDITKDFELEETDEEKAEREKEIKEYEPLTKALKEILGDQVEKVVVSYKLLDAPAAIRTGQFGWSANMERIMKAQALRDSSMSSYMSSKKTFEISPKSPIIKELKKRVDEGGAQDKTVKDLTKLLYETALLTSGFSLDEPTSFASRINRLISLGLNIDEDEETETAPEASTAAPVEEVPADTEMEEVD

Consider `CCNC(=O)c1noc(-c2cc(C(C)C)c(O)cc2O)c1-c1ccn(C(C)C)n1` [Compound I-100, 5-(2,4-Dihydroxy-5-isopropylphenyl)-N-ethyl-4-(1-isopropyl-1H-pyrazol-3-yl)isoxazole-3-carboxamide], for which the figures for the concentration for half-maximal inhibition (IC50) (in assay [1]; against yeast HSP90) were less than 500 nM and 500 to 1000 nM, respectively.

On to `CCNC(=O)c1noc(-c2cc(C(C)C)c(O)cc2O)c1-c1cc(C)no1` [Compound I-37, 5-(2,4-Dihydroxy-5-isopropylphenyl)-N-ethyl-3′-methyl-4,5′-biisoxazole-3-carboxamide], for which the IC50 (in assay [1]; against yeast HSP90) was less than 500 nM throughout.

For `CCNC(=O)c1noc(-c2cc(C(C)C)c(O)cc2O)c1-c1noc(C(=O)N2CCCC2)n1` [Compound I-68, 5-(2,4-Dihydroxy-5-isopropylphenyl)-N-ethyl-4-(5-(pyrrolidine-1-carbonyl)-1,2,4-oxadiazol-3-yl)isoxazole-3-carboxamide], the IC50 – broadly, the concentration at which inhibition is half-maximal – is less than 500 nM in assay [1] and 500 to 1000 nM on yeast HSP90.

As for `CCNC(=O)c1noc(-c2cc(C(C)C)c(O)cc2O)c1-c1cc(CO)no1` [Compound I-17, 5-(2,4-Dihydroxy-5-isopropylphenyl)-N-ethyl-3′-(hydroxymethyl)-4,5′-biisoxazole-3-carboxamide], the IC50 (in assay [1]; on yeast HSP90) was less than 500 nM each time.

As to `CCNC(=O)c1noc(-c2cc(C(C)C)c(O)cc2O)c1-c1cc(/C=N/O)no1` [Compound I-53, 5-(2,4-Dihydroxy-5-isopropylphenyl)-N-ethyl-3′-((hydroxyimino)methyl)-4,5′-biisoxazole-3-carboxamide], the 50% inhibitory concentration (IC50) in assay [1] was less than 500 nM; on yeast HSP90, 500 to 1000 nM.

Take `CCNC(=O)C1=NOC(c2c(C(=O)NCC)noc2-c2cc(C(C)C)c(O)cc2O)C1` (stereo not shown) [Compound I-8, 5-(2,4-Dihydroxy-5-isopropylphenyl)-N-ethyl-4-(3-(ethylcarbamoyl)-4,5-dihydroisoxazol-5-yl)isoxazole-3-carboxamide]: the concentration for half-maximal inhibition (IC50) in assay [1] is less than 500 nM; against yeast HSP90, 500 to 1000 nM.

Turning to `CCNC(=O)c1noc(-c2cc(C(C)C)c(O)cc2O)c1-c1noc(O)n1` [Compound I-80, 5-(2,4-Dihydroxy-5-isopropylphenyl)-N-ethyl-4-(5-hydroxy-1,2,4-oxadiazol-3-yl)isoxazole-3-carboxamide], the concentration for half-maximal inhibition (IC50) (in assay [1]; against yeast HSP90) was greater than 1000 nM each time.

With `CCNC(=O)c1noc(-c2cc(C(C)C)c(O)cc2O)c1-c1noc(N2CCCCC2)n1` [Compound I-71, 5-(2,4-Dihydroxy-5-isopropylphenyl)-N-ethyl-4-(5-(piperidin-1-yl)-1,2,4-oxadiazol-3-yl)isoxazole-3-carboxamide], the 50% inhibitory concentration (IC50) (in assay [1]; against yeast HSP90) was less than 500 nM throughout.

Turning to `CCNC(=O)c1noc(-c2cc(C(C)C)c(O)cc2O)c1-c1cc(CNC(C)=O)no1` [Compound I-31, 3′-(Acetamidomethyl)-5-(2,4-dihydroxy-5-isopropylphenyl)-N-ethyl-4,5′-biisoxazole-3-carboxamide], the IC50 in assay [1] was less than 500 nM; against yeast HSP90 it was 500 to 1000 nM.

For the compound `CCNC(=O)c1noc(-c2cc(C(C)C)c(O)cc2O)c1-c1noc(CN2CCCC2)n1` [Compound I-95, 5-(2,4-Dihydroxy-5-isopropylphenyl)-N-ethyl-4-(5-(pyrrolidin-1-ylmethyl)-1,2,4-oxadiazol-3-yl)isoxazole-3-carboxamide], the results for the IC50 (in assay [1]; at yeast HSP90) were less than 500 nM and 500 to 1000 nM, respectively.

Turning to `CCNC(=O)c1noc(-c2cc(C(C)C)c(O)cc2O)c1-c1nnnn1C` [Compound I-11, 5-(2,4-Dihydroxy-5-isopropylphenyl)-N-ethyl-4-(1-methyl-1H-tetrazol-5-yl)isoxazole-3-carboxamide], the IC50 (in assay [1]; against yeast HSP90) was less than 500 nM throughout.

For `CCNC(=O)c1noc(-c2cc(C(C)C)c(O)cc2O)c1-c1noc(N(C)C)n1` [Compound I-72, 5-(2,4-Dihydroxy-5-isopropylphenyl)-4-(5-(dimethylamino)-1,2,4-oxadiazol-3-yl)-N-ethylisoxazole-3-carboxamide], the IC50 (in assay [1]; on yeast HSP90) was less than 500 nM throughout.

On to `CCNC(=O)c1noc(-c2cc(C(C)C)c(O)cc2O)c1-c1noc(C(O)CCl)n1` (stereo not shown) [Compound I-91, 4-(5-(2-Chloro-1-hydroxyethyl)-1,2,4-oxadiazol-3-yl)-5-(2,4-dihydroxy-5-isopropylphenyl)-N-ethylisoxazole-3-carboxamide], for which the IC50 in assay [1] is less than 500 nM; at yeast HSP90, 500 to 1000 nM.

Regarding `CCNC(=O)c1noc(-c2cc(C(C)C)c(O)cc2O)c1-c1ncon1` [Compound I-66, 5-(2,4-Dihydroxy-5-isopropylphenyl)-N-ethyl-4-(1,2,4-oxadiazol-3-yl)isoxazole-3-carboxamide], the 50% inhibitory concentration (IC50) in assay [1] was less than 500 nM; against yeast HSP90 it was 500 to 1000 nM.

`CCNC(=O)c1noc(-c2cc(C(C)C)c(O)cc2O)c1-c1cc(C(=O)N2CCOCC2)no1` [Compound I-23, 5-(2,4-Dihydroxy-5-isopropylphenyl)-N-ethyl-3′-(morpholine-4-carbonyl)-4,5′-biisoxazole-3-carboxamide]: the IC50 in assay [1] was less than 500 nM; against yeast HSP90, 500 to 1000 nM.

Regarding `C=CCO/N=C/c1cc(-c2c(C(=O)NCC)noc2-c2cc(C(C)C)c(O)cc2O)on1` [Compound I-54, 3′-((Allyloxyimino)methyl)-5-(2,4-dihydroxy-5-isopropylphenyl)-N-ethyl-4,5′-biisoxazole-3-carboxamide], the IC50 was less than 500 nM in assay [1] and 500 to 1000 nM at yeast HSP90.

With `CCNC(=O)c1noc(-c2cc(C(C)C)c(O)cc2O)c1-c1noc(C(Cl)(Cl)Cl)n1` [Compound I-70, 5-(2,4-Dihydroxy-5-isopropylphenyl)-N-ethyl-4-(5-(trichloromethyl)-1,2,4-oxadiazol-3-yl)isoxazole-3-carboxamide], the IC50 (in assay [1]; against yeast HSP90) was 500 to 1000 nM in each case.

Take `CCNC(=O)c1noc(-c2cc(C(C)C)c(O)cc2O)c1-c1cc(COS(C)(=O)=O)no1` [Compound I-32, (5-(2,4-Dihydroxy-5-isopropylphenyl)-3-(ethylcarbamoyl)-4,5′-biisoxazol-3′-yl)methyl methanesulfonate]: the IC50 (in assay [1]; on yeast HSP90) was less than 500 nM in each case.

For the compound `CCNC(=O)c1noc(-c2cc(C(C)C)c(O)cc2O)c1-c1noc(N)n1` [Compound I-78, 4-(5-Amino-1,2,4-oxadiazol-3-yl)-5-(2,4-dihydroxy-5-isopropylphenyl)-N-ethylisoxazole-3-carboxamide], the half-inhibitory concentration (IC50) (in assay [1]; against yeast HSP90) was less than 500 nM each time.

On to `CCNC(=O)c1noc(-c2cc(C(C)C)c(O)cc2O)c1-c1noc([C@H](C)O)n1` [Compound I-83, (S)-5-(2,4-Dihydroxy-5-isopropylphenyl)-N-ethyl-4-(5-(1-hydroxyethyl)-1,2,4-oxadiazol-3-yl)isoxazole-3-carboxamide], for which the IC50 was less than 500 nM in assay [1] and 500 to 1000 nM on yeast HSP90.

Turning to `CCNC(=O)c1noc(-c2cc(C(C)C)c(O)cc2O)c1-c1cc(C(=O)OCC)no1` [Compound I-15, Ethyl 5-(2,4-dihydroxy-5-isopropylphenyl)-3-(ethylcarbamoyl)-4,5′-biisoxazole-3′-carboxylate], the IC50 was greater than 1000 nM in assay [1] and less than 500 nM at yeast HSP90.

Regarding `CCNC(=O)c1noc(-c2cc(C(C)C)c(O)cc2O)c1-c1cc(-c2ccsc2)no1` [Compound I-46, 5-(2,4-Dihydroxy-5-isopropylphenyl)-N-ethyl-3′-(thiophen-3-yl)-4,5′-biisoxazole-3-carboxamide], the concentration for half-maximal inhibition (IC50) was less than 500 nM in assay [1] and 500 to 1000 nM at yeast HSP90.

Consider `CCNC(=O)c1noc(-c2cc(C(C)C)c(O)cc2O)c1-c1cc(CN2CCN(C)CC2)no1` [Compound I-43, 5-(2,4-Dihydroxy-5-isopropylphenyl)-N-ethyl-3′-((4-methylpiperazin-1-yl)methyl)-4,5′-biisoxazole-3-carboxamide], for which the figures for the concentration for half-maximal inhibition (IC50) (in assay [1]; against yeast HSP90) were less than 500 nM and 500 to 1000 nM, respectively.

Turning to `CCNC(=O)c1noc(-c2cc(C(C)C)c(O)cc2O)c1-c1noc(SC)n1` [Compound I-87, 5-(2,4-Dihydroxy-5-isopropylphenyl)-N-ethyl-4-(5-(methylthio)-1,2,4-oxadiazol-3-yl)isoxazole-3-carboxamide], the results for the 50% inhibitory concentration (IC50) (in assay [1]; against yeast HSP90) were 500 to 1000 nM and less than 500 nM, respectively.

With `CCNC(=O)c1noc(-c2cc(C(C)C)c(O)cc2O)c1-c1cc(C(OC)OC)no1` [Compound I-51, 5-(2,4-Dihydroxy-5-isopropylphenyl)-3′-(dimethoxymethyl)-N-ethyl-4,5′-biisoxazole-3-carboxamide], the half-inhibitory concentration (IC50) (in assay [1]; against yeast HSP90) was less than 500 nM each time.

As for `CCNC(=O)c1noc(-c2cc(C(C)C)c(O)cc2O)c1-c1cc(CN)no1` [Compound I-30, 3′-(Aminomethyl)-5-(2,4-dihydroxy-5-isopropylphenyl)-N-ethyl-4,5′-biisoxazole-3-carboxamide], the half-inhibitory concentration (IC50) in assay [1] is less than 500 nM; on yeast HSP90 it was 500 to 1000 nM.

Regarding `CCNC(=O)c1noc(-c2cc(C(C)C)c(O)cc2O)c1-c1nnn(C)n1` [Compound I-12, 5-(2,4-Dihydroxy-5-isopropylphenyl)-N-ethyl-4-(2-methyl-2H-tetrazol-5-yl)isoxazole-3-carboxamide], the IC50 (in assay [1]; against yeast HSP90) was less than 500 nM throughout.

Regarding `CCNC(=O)c1noc(-c2cc(C(C)C)c(O)cc2O)c1-c1noc(-c2ccc(OC)cc2)n1` [Compound I-84, 5-(2,4-Dihydroxy-5-isopropylphenyl)-N-ethyl-4-(5-(4-methoxyphenyl)-1,2,4-oxadiazol-3-yl)isoxazole-3-carboxamide], the half-maximal inhibitory concentration (IC50) (in assay [1]; against yeast HSP90) was 500 to 1000 nM throughout.

Regarding `CCNC(=O)c1noc(-c2cc(C(C)C)c(O)cc2O)c1-c1cc(/C=N/OC)no1` [Compound I-52, 5-(2,4-Dihydroxy-5-isopropylphenyl)-N-ethyl-3′-((methoxyimino)methyl)-4,5′-biisoxazole-3-carboxamide], the IC50 (in assay [1]; at yeast HSP90) was less than 500 nM each time.

The values are drawn from patent US20120309750A1, “5-MEMBERED HETEROCYCLE DERIVATIVES AND MANUFACTURING PROCESS THEREOF” (ILDONG PHARM CO., LTD., priority 2010, published 2012).
